Several values for one entry are separate records, joined by “and”; a condition that tells them apart may be missing. Equal entries are not always repeated.
Columns and labels:
Scn9a^3.1/3.1 DRG = experiment: CGRP release assay, Scn9a^3.1/3.1 DRG; type: cell-based, mouse
Scn9a^+/+ DRG = experiment: CGRP release assay, Scn9a^+/+ DRG; type: cell-based, mouse

Molecule | inflammatory mix-induced release of CGRP (Scn9a^3.1/3.1 DRG) | inflammatory mix-induced release of CGRP (Scn9a^+/+ DRG) | CGRP released (Scn9a^+/+ DRG)
CCN(CC)CC(=O)Nc1c(C)cccc1C [Lidocaine] | notably enhanced |  | 
NC1=N[C@H](O)[C@H]2[C@H]3O[C@]4(O)O[C@@H]([C@@H](O)[C@@]2(N1)[C@@H]4O)[C@]3(O)CO [TTX, Tetrodotoxin] |  | notably enhanced | 
ProTx-II [Pro-TXII] |  | notably enhanced | 186 ± 40 pg/mL and 126 ± 25 pg/mL

Source: patent US8486647B2, “Neuropeptide release assay for sodium channels” (priority 2010, dated 2013)
